Results published in US7030104B2, “Topical oestroprogestational compositions with a systemic effect” (Laboratoire Theramex, priority 2000, dated 2006).

Key:
[1] = In vitro percutaneous passage on static diffusion cells (Franz cells), radiolabelled active ingredients; type: in vitro ADME, human; conditions: 24 hours
Method: Percutaneous absorption is studied in vitro on static diffusion cells, called Franz cells™. The percutaneous passage of the active ingredients is evaluated by measuring the radioactivity using labelled molecules (carbon 14, tritium). The overall quantity of active ingredient absorbed is measured, at different times, in the receiving compartment.
A cutaneous biopsy is horizontally maintained between the two parts of the cell thus delimiting on both sides of the sample, two compartments: one of them epidermic, constituted by a glass cylinder, of a defined area (1.76 cm^2), placed on the upper surface of the skin; the other dermic (or receptor), on the underside of the biopsy, comprises a fixed volume reservoir with a side nozzle. The two compartments are kept in place through the intermediary of a clamp. […]
The preparations to be studied are applied in weighed quantities, using a spatula over all of the epidermal area circumscribed by the glass cone. […] The samples removed are treated with Pico-fluorine 40™ scintillation liquid and the activity measured using a liquid scintillation counter. […]
The percutaneous passage of the active ingredients is evaluated at the time of each sampling by measuring the cumulative quantity (μg) of active ingredient as a function of time.

[2] = known pharmacokinetics; Patent FR 2.776.191; cited from earlier work

Structure (SMILES)	change of percutaneous passage of nomegestrol acetate caused by presence of estradiol ([1]; gel G29-299 (NAc + E2) versus G29-287 (NAc only))	plasmatic concentration of nomegestrol acetate for clinical effectiveness (endometrial effect through bleedings) [2]	change of percutaneous penetration of estradiol caused by presence of nomegestrol acetate ([1]; gel G29-299 (NAc + E2) versus TX11323 (E2 only))
CC(=O)O[C@]1(C(C)=O)CC[C@H]2[C@@H]3C=C(C)C4=CC(=O)CC[C@@H]4[C@H]3CC[C@@]21C [nomegestrol acetate]	+39%	≥ 0.7 ng/mL	
C[C@]12CC[C@@H]3c4ccc(O)cc4CC[C@H]3[C@@H]1CC[C@@H]2O [estradiol, 17beta estradiol]			−51%
